From PubChem BioAssay AID1902 (Broad Institute, 2009)
The source made the active and inactive calls.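 How the source made its calls: active means EC50 no more than a set limit of log units above the highest dose; inactive means the rest.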

Biological target: S. pyogenes SKKanGAS, kanamycin survival, BacTiterGlo, 6 h
Assay: S. pyogenes SKKanGAS kanamycin growth inhibitors – SKKanGAS strain, luminescence, dose confirmation, streptokinase promoter inhibitor project, dose response (AID 1902);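 further: lower survival reflects blocked streptokinase promoter driving kanamycin resistance gene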

## Cc1ccccc1CN(C)CC(=O)Nc1ccccc1-c1ccccc1
  EC50: 3.3 µM

## CC1=NN(c2ccccc2)C(=O)/C1=C/c1c(O)n(-c2ccc(F)c(Cl)c2)[nH]c1=O
  EC50: 3.61 µM

## CCn1c(=O)c(C(=O)NNC(=O)Cc2ccccc2)c(O)c2ccccc21
  EC50: 4.71 µM

## CC/C(=N\NC(=S)Nc1cccc(C)c1)c1ccccc1
  EC50: 7.96 µM

## O=C(Nc1ccc(OC(F)(F)F)cc1)C1CCCN(S(=O)(=O)c2cnc[nH]2)C1 (stereo unspecified)
  EC50: > 15 µM (inactive)

## COc1ccc(-c2cc(C3CCN(Cc4cccc(C(F)(F)F)c4)CC3)[nH]n2)cc1
  EC50: 9.26 µM

## O=C1N/C(=N\c2ccccn2)SC1Cc1ccc(Cl)cc1 (stereo unspecified)
  EC50: > 15 µM (inactive)

## COc1cc(NC(=O)c2cc3nc(-c4ccccc4)cc(-c4ccccc4)n3n2)cc(OC)c1OC
  EC50: 10.1 µM

## COc1cc(/C=N\NC(=O)c2ccc(Cn3cc(Br)c([N+](=O)[O-])n3)o2)cc(OC)c1O
  EC50: 4.97 µM

## Clc1cc(CSc2ccccc2)nc(-c2ccccc2)n1
  EC50: 8.95 µM

## Cc1cc(C)n(-c2nc(NCCCO)c3c4c(sc3n2)CCCC4)n1
  EC50: 2.2 µM

## Cc1ccc(C)n1-c1sc2c(c1C#N)CCC(C)C2 (stereo unspecified)
  EC50: 2.35 µM

## O=C(COc1ccc(F)cc1)Nc1nc(-c2ccccn2)cs1
  EC50: 5.55 µM

## Cc1cccc(OCC(=O)Nc2ccccc2N2CCCCC2)c1C
  EC50: 4.8 µM

## COc1ccc(-c2sc3ccccc3c2C#CC2(O)CCCCC2)cc1
  EC50: 4.58 µM

## Cc1ccc(-c2cc(C(=O)N3CCN(c4ccccc4O)CC3)c3ccccc3n2)cc1
  EC50: 8.84 µM

## CCCc1cc(=O)n2[nH]c(C)c(-c3ccc(Cl)cc3)c2n1
  EC50: 5.81 µM

## Cc1nnc(SCC2=C(C(=O)O)N3C(=O)C(NC(=O)c4cccc(F)c4F)C3SC2)s1 (stereo unspecified)
  EC50: 0.269 µM

## O=C(CSc1nnc(CNC(=O)c2c(F)cccc2F)o1)NCc1ccccc1
  EC50: > 15 µM (inactive)

## CCCCNC(=O)c1sc(=S)n2c1[nH]c(=O)c1ccccc12
  EC50: 9.08 µM

## O=C(NCc1ccc2c(c1)OCO2)C(=O)NCC1OCCN1S(=O)(=O)c1ccc(Br)cc1 (stereo unspecified)
  EC50: > 15 µM (inactive)

## COc1ccccc1C(=O)NNC(=S)NC(=O)c1cc(OC)c(OC)c(OC)c1
  EC50: 0.98 µM

## COc1cccc(/C=N/Nc2nc(Nc3ccccc3)nc(-n3nc(C)cc3C)n2)c1O
  EC50: 1.97 µM

## O=C(CSc1ccc2ccccc2n1)N/N=C/c1ccccc1O
  EC50: 2.12 µM

## O=C(CSc1nc2c(cnn2-c2ccccc2)c(=O)[nH]1)N1N=C(c2cccs2)CC1c1ccc(F)cc1 (stereo unspecified)
  EC50: 1.62 µM

## O=[N+]([O-])c1ccc(/C=N/NC(=S)Nc2ccc(Cl)cc2Cl)s1
  EC50: 1.75 µM

## O=C(O)CCn1cc(/C=C/C(=O)c2ccc(Cl)cc2)c(-c2cccc(Br)c2)n1
  EC50: 3.68 µM

## Cc1cc(C(=O)N/N=C/c2cc(Br)cc([N+](=O)[O-])c2O)c2ccccc2n1
  EC50: 0.893 µM

## Cc1ccc(O)c(NC(=S)NC(=O)c2ccc(-c3ccc(Cl)cc3)o2)c1
  EC50: 0.221 µM

## Oc1c(C(Nc2ccccn2)c2cccnc2)cc(Cl)c2cccnc12 (stereo unspecified)
  EC50: 2.46 µM

## S=c1[nH]nc(C2CCCCC2)n1/N=C/c1c(Cl)cccc1Cl
  EC50: 8.36 µM

## COc1ccccc1CCNC(=O)C(=O)c1cn(CC(=O)N2CCCC2)c2ccccc12
  EC50: > 15 µM (inactive)

## CCc1ccc2c(c1)C1(NN=C(c3cccc4ccccc34)S1)C(=O)N2 (stereo unspecified)
  EC50: 0.115 µM

## CCSc1nnc(NC(=O)c2ccc3ccccc3n2)s1
  EC50: 2.53 µM

## O=C(COc1ccccc1)NC1C(=O)N2C(C(=O)O)=C(Cl)CSC12 (stereo unspecified)
  EC50: 0.128 µM

## O=c1cc(N2CCCCC2)c(-c2ccccc2)nn1Cc1c(Cl)cccc1Cl
  EC50: 4.69 µM

## CCCCCCCCCCCCC/C=C/[C@@H](O)[C@@H](N)CO
  EC50: 2.56 µM

## Oc1c(Br)cc(Br)cc1CNc1ccc(F)cc1
  EC50: 8.89 µM

## CCOC(=O)c1c(C)oc2c1c(C(c1ccccc1)N1CCOCC1)c(O)c1ccccc12 (stereo unspecified)
  EC50: 2.66 µM

## Cc1cccc(NC(=O)c2sc(Cl)nc2-c2ccccc2)c1
  EC50: 11.2 µM

## Oc1c(Cl)cc(Cl)c2cccnc12
  EC50: 0.148 µM

## COc1ccc(Oc2nc(-c3ccccn3)nc3ccccc23)cc1
  EC50: 6.49 µM

## COc1ccc(S(=O)(=O)N2CCOC2CNC(=O)C(=O)NCc2ccccc2Cl)cc1 (stereo unspecified)
  EC50: > 15 µM (inactive)

## O=C(CSc1nnc(CNC(=O)c2ccc(F)cc2)o1)NCc1ccccc1Cl
  EC50: > 15 µM (inactive)

## O=C(NNc1c2ccccc2nc2ccccc12)c1ccc(O)cc1O
  EC50: 3.15 µM

## O=C1/C(=C\c2cc([N+](=O)[O-])ccc2O)SC(=S)N1Cc1ccc(Cl)cc1
  EC50: 2.18 µM

## Cc1ccc(NC(=O)C(OC(=O)c2ccc(NC(N)=O)cc2)c2ccccc2)cc1Cl (stereo unspecified)
  EC50: 6.52 µM

## COc1ccc(-c2c(C(F)(F)F)[nH]n3c(=O)cc(-c4ccccc4)nc23)cc1
  EC50: 4.73 µM

## CC12CC3(C)CC(C)(C1)CC(C(=O)NC1=NCCS1)(C2)C3
  EC50: 0.992 µM

## CC(C)C[C@H](NC(=O)c1[nH]cnc1C(=O)Nc1ccccc1)C(=O)OC(C)(C)C
  EC50: 3.8 µM

## CC(C)c1ccc(-c2cc(C(=O)N3N=C(C(F)F)CC3(O)C(F)F)c3ccccc3n2)cc1 (stereo unspecified)
  EC50: 3.11 µM

## CN(c1ccccc1)c1nc(N2CCCC2)nc(-n2ccnc2)n1
  EC50: 10.8 µM

## CCN1/C(=C/C(C)=C/c2sc3ccccc3[n+]2CC)Sc2ccccc21
  EC50: 2.03 µM

## N#C/C(=C(/O)CCl)c1nc2c(s1)CCc1ccccc1-2
  EC50: 12.2 µM

## Cc1cc(NC(=O)/C=C/c2ccccc2Cl)n(-c2nc3ccccc3[nH]2)n1
  EC50: 1.9 µM

## Cc1cc(Oc2ccc(Cl)cc2)nc(-c2ccccc2O)n1
  EC50: > 15 µM (inactive)

## Cc1cc(C)n(C(=O)/C(C#N)=N/Nc2cc(Cl)cc(Cl)c2)n1
  EC50: 1.76 µM

## CCC(=O)Nc1nc2ccccc2n1Cc1ccccc1Cl
  EC50: 8.22 µM

## Cc1cccc(-n2ncc3c2CCCC3NC(=O)CCN2Cc3ccccc3C2=O)c1C (stereo unspecified)
  EC50: > 15 µM (inactive)

## COc1ccc(Cl)cc1C(=O)NNC(=S)NC(=O)c1cc(-c2ccc(Cl)cc2)nc2ccccc12
  EC50: 0.254 µM

## Cc1cc(C(C)(C)C)cc(C)c1COC(=O)c1cccnc1
  EC50: 3.25 µM

## CCN1/C(=C\c2ccc3cc(C)ccc3[n+]2CC)Sc2cc(C)c(C)cc21
  EC50: 4.23 µM

## CSc1nc2cc(Oc3cccc(Cl)c3Cl)c(Cl)cc2[nH]1
  EC50: 2.93 µM

## N=C(N)c1ccc(OCCCCCOc2ccc(C(=N)N)cc2)cc1
  EC50: < 0.06 µM

## CCOC(=O)c1cnn(-c2nc(-c3ccccc3)cs2)c1C(F)(F)F
  EC50: 5.29 µM

## O=C(Nc1cccc(Cl)c1N1CCCC1)c1ccc(Br)o1
  EC50: 5.82 µM

## Oc1cc(OCc2ccccc2)ccc1-c1[nH]ncc1-c1ccccc1
  EC50: 3.06 µM

## COC(=O)C1=NN(C(=O)c2cccc(Br)c2)C(O)(c2ccc(Cl)cc2)C1 (stereo unspecified)
  EC50: 1.29 µM

## Cc1nn(-c2ccccc2)c2c1C(c1ccc(O)c(O)c1)N1C(=N2)C(Nc2ccccc2)=Nc2ccccc21 (stereo unspecified)
  EC50: 1.36 µM

## Cc1ccc(-c2[nH]nc(N)c2N=Nc2ccccc2C)cc1
  EC50: 1.07 µM

## O=[N+]([O-])c1ccc(/C=N/Nc2nc(-c3ccccc3)c3cc(Br)ccc3n2)o1
  EC50: 0.466 µM

## CC(=O)Nc1nnc(S(=O)(=O)N2CCN(c3ccc(Cl)cc3[N+](=O)[O-])CC2)s1
  EC50: > 15 µM (inactive)

## O=C(Nc1nnc(-c2ccc(Br)cc2)o1)c1ccco1
  EC50: 1.2 µM

## CCOC(=O)N1CCN(C(=O)c2ccc3c(c2)NC(=O)/C(=C/c2ccccc2)S3)CC1
  EC50: 1.59 µM

## CCn1cc(C(=O)O)c(=O)c2cc(F)c(N3CCN(S(=O)(=O)c4ccc5c(c4)OCCO5)CC3)cc21
  EC50: 2.9 µM

## Cc1ccc(Cl)cc1NC1=C/C(=N\S(=O)(=O)c2cccs2)c2ccccc2C1=O
  EC50: 0.908 µM

## Cc1cccc(-n2nc(C(=O)c3ccco3)cc(-c3nc4ccccc4[nH]3)c2=N)c1
  EC50: 3.36 µM

## O[C@@H]1CCCN2CCc3c([nH]c4ccccc34)[C@H]12
  EC50: > 15 µM (inactive)

## O=C(NNC(=S)NC(=O)c1cccnc1)c1ccc(Cl)cc1
  EC50: 2.64 µM

## c1ccc(-c2nc(-c3nccc4ccccc34)oc2-c2ccccc2)cc1
  EC50: 3.52 µM

## CCCOc1ccc(C(=O)NNC(=S)NC(=O)CC)cc1
  EC50: 0.431 µM

## CC(=O)OCC1=C(C(=O)O)N2C(=O)C(NC(=O)CCn3nc(C)c(Cl)c3C)C2SC1 (stereo unspecified)
  EC50: 1.02 µM

## CC(C)C1OC2c3cccc4cccc(c34)C2N1c1ccccc1 (stereo unspecified)
  EC50: 2.57 µM

## Cc1cc(N/N=C/c2ccc(O)c(C)c2O)nc(-c2ccccc2O)n1
  EC50: 3.09 µM

## CCCCCCCC(=O)NNC(=O)c1c(O)c2ccccc2n(CC)c1=O
  EC50: 1.3 µM

## O=C(Cc1ccccc1)N/N=C/c1ccccn1
  EC50: > 15 µM (inactive)

## Oc1ccccc1C(Nc1nccs1)c1ccc2cccnc2c1O (stereo unspecified)
  EC50: 4.35 µM

## Fc1ccccc1N=C1NN=C(c2ccccc2)CS1
  EC50: 8.17 µM

## Cc1nn(-c2ccccc2)c(C)c1/C=N/NC(=O)c1cc(-c2ccc(Cl)s2)[nH]n1
  EC50: 5.8 µM

## CCCCN(CCCC)C(=S)N/N=C/c1c(C)[nH]n(-c2ccccc2)c1=O
  EC50: 0.399 µM

## O=C(NNC(=O)c1ccccc1OCc1ccccc1Cl)c1csc(N2CCOCC2)n1
  EC50: 5.04 µM

## Cc1cccc(Nc2nc(N)nc(CN3CCN(c4ccc(F)cc4)CC3)n2)c1
  EC50: 15.6 µM

## Cc1nn(-c2ccccc2)c(Cl)c1C1C(C#N)=C(N)OC2=C1C(=O)CCC2 (stereo unspecified)
  EC50: 1.25 µM

## Cc1cccc(/C=C/C(=O)c2cc(Br)ccc(=O)c2O)c1
  EC50: 0.818 µM

## CNC(CC(C)C)C(=O)NC1C(=O)NC(CC(N)=O)C(=O)NC2C(=O)NC3C(=O)NC(C(=O)NC(C(=O)O)c4cc(O)cc(O)c4-c4cc3ccc4O)C(O)c3ccc(c(Cl)c3)Oc3cc2cc(c3OC2OC(CO)C(O)C(O)C2OC2CC(C)(N)C(O)C(C)O2)Oc2ccc(cc2Cl)C1O (stereo unspecified)
  EC50: 0.169 µM

## N#Cc1c(-c2ccccc2)nc(SCc2cccc(C(F)(F)F)c2)[nH]c1=O
  EC50: 1.97 µM

## Oc1c(Br)cc(Br)cc1CNc1cccc2cccnc12
  EC50: 4.47 µM

## Oc1ccc(-c2nc3c4c(ncn3n2)-c2ccccc2CC42CCCC2)cc1
  EC50: 0.843 µM

## Cc1cc(C)cc(NS(=O)(=O)c2ccc(NC(=S)NC(=O)c3cccs3)cc2)c1
  EC50: 6.32 µM

## O=c1cc(N2CCCCC2)c(-c2ccccc2)nn1Cc1ccc(Cl)cc1Cl
  EC50: 3.04 µM

## Cc1nn(CC(=O)Nc2c(F)c(F)cc(F)c2F)c(=O)c2cccn12
  EC50: > 15 µM (inactive)

## O=C(Nc1ccc(Cl)c(Cl)c1)N1CC=C(c2ccccc2)CC1
  EC50: 8.08 µM

## O=C(O)C(c1ccccc1)N1C(=O)/C(=C\c2ccc(-c3ccc(Br)cc3)o2)SC1=S (stereo unspecified)
  EC50: 1.27 µM

## Cc1cccc(C(=O)OCC(=O)Nc2nnc(-c3ccccc3)o2)c1O
  EC50: 2.2 µM

## CC(C)C(=O)Nc1ccc(C(=O)N/N=C/c2cc(Br)cc(Br)c2O)cc1
  EC50: 1.36 µM

## Cc1nn(CC(O)CN2c3ccccc3Sc3ccccc32)c(C)c1Br (stereo unspecified)
  EC50: 2.15 µM
